Assays:
[1] = Solubility of optional additional components in non-aqueous solvents; type: physicochemical
Source text: Additional ingredients were chosen for their compatibility with (e.g., miscibility in) 1,3 propanediol, 1,2 propanediol, and 1,3 butanediol.

erythema (skin redness) = details: concentrations of 0.2%; cited from earlier work
[2] = Method: This example was reproduced.
All mixtures were heated to 85° C.

[3] = most solvents; cited from earlier work
skin [4] = details: 4% HQ versus 5% Vitamin C; cited from earlier work
skin [5] = details: in vivo; cited from earlier work

Molecule: Madecassoside
- solubility of madecassoside ([1]; concentration of 0.2%, 1,3 propanediol, 1,2 propanediol and 1,3 butanediol): soluble
- reduction of erythema (skin redness), clinical data (erythema (skin redness)): desirable ability to reduce erythema

Molecule: NC(N)=O [U, urea]
- maximum concentrations soluble before urea starts to precipitate (the ceiling) ([2]; ascorbic acid together with urea in propylene glycol, butylene glycol and propanediol): 20%

Molecule: O=C(O)CCCCCCCC(=O)O [AzA, Azelaic acid]
- concentration of AzA that can be solubilized ([1]; 1,3 propanediol): up to 10%
- solubility of AzA in presence of hydroxyethyl urea ([1]; 1,3 propanediol): slightly increased
- AzA solubilized together with AA and U ([1]; with 10% AA, 5% U in a 1,3 propanediol base): 7.5%
- solubility of AzA [3]: very poorly soluble

Molecule: Oc1ccc(O)cc1 [HQ, hydroquinone]
- improvement (skin [4]): 93%
- side-effects (skin [4]): 68.7%

Molecule: CC1(C)[C@@H](O[C@H]2O[C@H](C(=O)O)[C@@H](O)[C@H](O)[C@H]2O[C@@H]2O[C@H](C(=O)O)[C@@H](O)[C@H](O)[C@H]2O)CC[C@]2(C)[C@H]3C(=O)C=C4[C@@H]5C[C@@](C)(C(=O)O)CC[C@]5(C)CC[C@@]4(C)[C@]3(C)CC[C@@H]12 [glycyrrhizic acid, Glycyrrhizic acid]
- solubility of glycyrrhizic acid ([1]; 1,3-propanediol): shows solubility

Molecule: CC(C)(CO)[C@@H](O)C(=O)NCCCO [Panthenol]
- concentration at which inhibition of transepidermal water loss is apparent (skin [5]): ≥ 1%

Molecule: O=C1O[C@H]([C@@H](O)CO)C(O)=C1O [ascorbic acid, L-ascorbic acid]
- degradation on heating [2]: showed signs of degradation
- improvement (skin [4]): 62.5%

Molecule: COc1cc(CC(C(C)=O)C(C)=O)ccc1O [Acetyl zingerone]
- solubility of acetyl zingerone ([1]; 0.5-1%, 1,3 propanediol, 1,2 propanediol and 1,3 butanediol): readily soluble

Reference: patent publication US12390444B2, “Stabilizing vitamin C topical formulations” (MF Beauty Partners LLC, priority 2020, dated 2025)
